Common to all, as to assay: inhibition of tumour cell growth, NCI panel, 48 h
Test [1] relates to 786-0 renal.
The test system of test [2] is U251 CNS.
In test [3] the test system is SK-MEL-5 melanoma.
Test [4] concerns HT29 colon.
Test [5] concerns SK-MEL-2 melanoma.
Test [6] deals with SR leukemia.
For test [7], the system named is SNB-75 CNS.
In test [8] the test system is SW-620 colon.
Test [9] concerns UACC-257 melanoma.
Test [10] relates to SN12C renal.
Test [11] relates to DU-145 prostate.
In test [12] the test system is NCI-H460 lung.
Test [13] relates to OVCAR-5 ovarian.
The subject of test [14] is MDA-N.
Test [15] has as its system UO-31 renal.
The subject of test [16] is SF-295 CNS.
Test [17] relates to T-47D breast.

Where “and” joins values, the source holds several entries; their conditions need not be identical. Identical values can stand only once.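 Exposure lasted 48 hours, with cells grown in 96-well plates and compounds tested at five concentrations. GI50 = concentration required for 50% inhibition of growth. The concentration for full growth arrest is given as TGI.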

Take `CC[C@@H]1/C=C/C=C/C[C@H](C)[C@@H](O)[C@@H](C)C(=O)[C@H](C)[C@@H](O)[C@H](C)C(=O)[C@H](C)[C@@H](O)[C@H](C)/C=C/C(=O)O[C@H]2[C@@H](C)[C@@H](CC1)O[C@@]1(CC[C@@H](C)[C@@H](CC(C)O)O1)[C@@H]2C` (stereo not given in full): the TGI in [1] was > 25 µM; in test [2], > 25 µM; in test [3] it was 3.38 µM; in [4], 13.9 µM; in [5] it was 18.1 µM; in test [6], 10.2 µM. For the same molecule, the TGI in test [7] is > 7.9 µM; in test [8] it was > 25 µM; in [9], 1.82 µM; in [10], 9.9 µM; in [11], > 11.8 µM; in test [12], > 22.2 µM. In addition, the TGI in test [13] is 15.4 µM; in test [14], > 17.6 µM.
Turning to `COCN1C(=O)[C@@H]2CCCN2C(=O)c2cc(OC)c(Cc3ccccc3)cc21`, the TGI in test [15], in test [1], in test [2], in [4], in test [5] and in test [16] was > 100 µM throughout. Further, the TGI in [7], in test [8], in test [9], in test [10], in test [11] and in test [17] was > 100 µM throughout. Also, the TGI in test [13] and in [14] was > 100 µM in each case.
For `COC(=O)c1cc2ccc(O)c(O)c2cn1`, the TGI was found to be 32.2 µM in [15]; 19.7 µM in test [1]; 31.2 µM in test [2]; 28.2 µM in test [3]; 34.3 µM in test [5]; 33.6 µM in test [16]. The TGI was 36.6 µM in test [7]; 32.4 µM in [8]; 29.6 µM in [9]; 17.3 µM in test [10]; > 100 µM in test [11]; 37.4 µM in test [12]. For the same molecule, the TGI in test [13] is 35 µM; in test [14], 2.89 µM and 3.69 µM. Also, the GI50 in [2] was 16.9 µM; in [10], 5.22 µM; in [14], 1.89 µM.
Turning to `N#CC(C#N)=c1c(=O)c2c3ccccc3cc3cccc1c32`, the TGI in [1], in test [2], in test [3], in test [4], in [5] and in test [7] was > 100 µM each time. For the same molecule, the TGI in test [8], in [9], in test [10], in test [11], in [17] and in test [12] was > 100 µM each time. Besides, the TGI in [13] and in [14] was > 100 µM each time.
In the case of `CSC(=S)CC(O)[C@@H]1CC2c3ccccc3C1c1ccccc12` (stereo not given in full), the TGI in [15] turned out to be 25.6 µM; in test [1], 41.3 µM; in test [2] it was 13 µM; in test [3], 30.5 µM; in test [4], 15 µM; in test [16], 34.4 µM. For the same molecule, the TGI in [8] is > 100 µM; in test [10], 45.2 µM; in test [11], 30.8 µM; in test [17], 37.7 µM; in [12] it was 40.8 µM; in test [13], 33.4 µM. In addition, the TGI in [14] was determined as 28.3 µM.
Take `C=C1CC[C@](C)(O)[C@@]2(C)CC[C@H]3C(=C(C)C)C(=O)C[C@]3(C)C[C@H]12`: the TGI in test [15], in test [1], in test [2], in test [3], in test [4] and in [5] was > 50 µM in each case. Also, the TGI in test [16] was > 50 µM; in test [6], 41.1 µM; in [7], > 50 µM; in test [8] it was > 50 µM; in test [9], > 50 µM; in test [10], > 50 µM. The TGI in test [11], in [17] and in test [13] was > 50 µM each time.
For the molecule `CC(=O)N1C=Cc2c(c(C)c3c([nH]c4ccccc43)c2C)C1`, the TGI in test [1] was 6.73 µM; in test [2], 19.4 µM; in test [3] it was 33.5 µM; in [4], 18 µM; in [5], 27.2 µM; in test [16], 23.8 µM. Moreover, the TGI was > 100 µM in test [6]; 7.47 µM in [8]; 29.6 µM in [9]; 20.3 µM in test [10]; 26.6 µM in test [11]; 24 µM in test [13]. This molecule also came in with a TGI in test [14] of 27.6 µM.
On to `COc1cc2nc(-c3cccs3)nc(Nc3cccc([N+](=O)[O-])c3)c2cc1OC`, for which the TGI in test [15] was 43.9 µM; in [1], 40.9 µM; in [2], 32.4 µM; in test [3] it was > 100 µM; in test [4] it was > 100 µM; in [5] it was 39.8 µM. Besides, the TGI in test [16] is 42.4 µM; in [6], 34.2 µM; in test [7] it was 78.8 µM; in test [8] it was 50.7 µM; in test [9], 44.2 µM; in [10], 33.2 µM. Also, the TGI in test [11] was 30 µM; in test [17], 38.6 µM; in test [12] it was 77.1 µM; in test [13], 41.4 µM.
As to `COC(=O)/C=C1\SC2(OC1=Nc1ccccc1)C1CC3CC(C1)CC2C3` (stereo not given), the TGI in [15], in test [2], in test [3], in [4], in test [5] and in test [16] was > 100 µM each time. In addition, the TGI in test [6], in [7], in test [8], in test [9], in test [10] and in [12] was > 100 µM in each case. The TGI in test [13] and in test [14] was > 100 µM each time.

Values taken from PubChem BioAssay (NCI).
